Each structure is given as a SMILES string.

One series deals with hiPSC INa. Kind of series: hiPSC INa current. It is filed as cell-based, human.
A further series deals with IK in rat DRG. Kind of series: Inhibition of IK current in dissociated rat DRG neurons. It counts as cell-based. Particulars: for IC50: rat DRG neurons, read-out: Inhibition of Currents in rat DRG: IK IC50; for K/T: ratio of IK IC50 to T-type IC50. The source says:
(§1) A representative panel of AFA/EX compounds was investigated on a variety of recombinant human ion channels expressed in mammalian cells and on native ion channels in dissociated rat dorsal root ganglion (DRG) neurons. […] Thus, this panel of compounds was next investigated on their effects on itching scratching behavior in two well-established itching models in mice.

Series [1] relates to chloroquine-induced itching. Kind of series: Chloroquine-induced itching (neck model of itch) in mice. It counts as in vivo, mouse. Particulars: 30 mg/kg i.p., 30 min before pruritogen. The method, then: (§2) Neck model of itch was employed. Mice (C57BL/6, male, 3-4 months old) were shaved at the nape of the neck 2-3 days before experiments. On the day of behavioral testing mice were individually placed in small plastic chambers (12 cm L×9.5 W×12 H) that inserted into an ordinary homecage at least 30 min for habituation and recorded baseline of behavior using a video camera and a piezoelectric floor sensor operated by a validated homecage behavioral monitory system, SmartCage, which can monitor multiple mouse scratching behaviors simultaneously. Treatment with an individual test article (10 representative AFA-compounds, each at 30 mg/kg) or vehicle (0.5% hydroxyl propyl cellulose aqueous solution containing 2% DMSO) were intraperitoneally (i.p.) injected 30 min prior to itching induction. Mice were given an intradermal injection of 50 μl of a pruritogen, chloroquine or histamine into the nape of the neck. Immediately after the injection, mice were returned to their chambers and were continually recorded by the piezoelectric floor sensor for 30 min. Human manual scoring of itching scratch behavior in real-time and confirmed by video and/or piezoelectric recordings offline. The itch behavior was quantified by counting the number of scratches in a blinded to the treatment manner. A scratch was counted when a mouse lifted its hindpaw to scratch the shaved region and returned the paw to the floor or to the mouth for licking. The piezoelectric signals with a larger and regular waveform distinguished from normal homecage activity were analyzed off-line to objectively quantifying scratch episodes and durations.

The test system of the next series is INa in rat DRG. Kind of series: Inhibition of INa current in dissociated rat DRG neurons. It is filed as cell-based. As to conditions: for IC50: rat DRG neurons, read-out: Inhibition of Currents in rat DRG: INa IC50; for Na/T: ratio of INa IC50 to T-type IC50.
From the text: as §1

In a further series the target is T1, hCav3.2 Channel (Homo sapiens, UniProt O95180).
T1 construct: expressed in transfected cells
T1 sequence (O95180 whole entry): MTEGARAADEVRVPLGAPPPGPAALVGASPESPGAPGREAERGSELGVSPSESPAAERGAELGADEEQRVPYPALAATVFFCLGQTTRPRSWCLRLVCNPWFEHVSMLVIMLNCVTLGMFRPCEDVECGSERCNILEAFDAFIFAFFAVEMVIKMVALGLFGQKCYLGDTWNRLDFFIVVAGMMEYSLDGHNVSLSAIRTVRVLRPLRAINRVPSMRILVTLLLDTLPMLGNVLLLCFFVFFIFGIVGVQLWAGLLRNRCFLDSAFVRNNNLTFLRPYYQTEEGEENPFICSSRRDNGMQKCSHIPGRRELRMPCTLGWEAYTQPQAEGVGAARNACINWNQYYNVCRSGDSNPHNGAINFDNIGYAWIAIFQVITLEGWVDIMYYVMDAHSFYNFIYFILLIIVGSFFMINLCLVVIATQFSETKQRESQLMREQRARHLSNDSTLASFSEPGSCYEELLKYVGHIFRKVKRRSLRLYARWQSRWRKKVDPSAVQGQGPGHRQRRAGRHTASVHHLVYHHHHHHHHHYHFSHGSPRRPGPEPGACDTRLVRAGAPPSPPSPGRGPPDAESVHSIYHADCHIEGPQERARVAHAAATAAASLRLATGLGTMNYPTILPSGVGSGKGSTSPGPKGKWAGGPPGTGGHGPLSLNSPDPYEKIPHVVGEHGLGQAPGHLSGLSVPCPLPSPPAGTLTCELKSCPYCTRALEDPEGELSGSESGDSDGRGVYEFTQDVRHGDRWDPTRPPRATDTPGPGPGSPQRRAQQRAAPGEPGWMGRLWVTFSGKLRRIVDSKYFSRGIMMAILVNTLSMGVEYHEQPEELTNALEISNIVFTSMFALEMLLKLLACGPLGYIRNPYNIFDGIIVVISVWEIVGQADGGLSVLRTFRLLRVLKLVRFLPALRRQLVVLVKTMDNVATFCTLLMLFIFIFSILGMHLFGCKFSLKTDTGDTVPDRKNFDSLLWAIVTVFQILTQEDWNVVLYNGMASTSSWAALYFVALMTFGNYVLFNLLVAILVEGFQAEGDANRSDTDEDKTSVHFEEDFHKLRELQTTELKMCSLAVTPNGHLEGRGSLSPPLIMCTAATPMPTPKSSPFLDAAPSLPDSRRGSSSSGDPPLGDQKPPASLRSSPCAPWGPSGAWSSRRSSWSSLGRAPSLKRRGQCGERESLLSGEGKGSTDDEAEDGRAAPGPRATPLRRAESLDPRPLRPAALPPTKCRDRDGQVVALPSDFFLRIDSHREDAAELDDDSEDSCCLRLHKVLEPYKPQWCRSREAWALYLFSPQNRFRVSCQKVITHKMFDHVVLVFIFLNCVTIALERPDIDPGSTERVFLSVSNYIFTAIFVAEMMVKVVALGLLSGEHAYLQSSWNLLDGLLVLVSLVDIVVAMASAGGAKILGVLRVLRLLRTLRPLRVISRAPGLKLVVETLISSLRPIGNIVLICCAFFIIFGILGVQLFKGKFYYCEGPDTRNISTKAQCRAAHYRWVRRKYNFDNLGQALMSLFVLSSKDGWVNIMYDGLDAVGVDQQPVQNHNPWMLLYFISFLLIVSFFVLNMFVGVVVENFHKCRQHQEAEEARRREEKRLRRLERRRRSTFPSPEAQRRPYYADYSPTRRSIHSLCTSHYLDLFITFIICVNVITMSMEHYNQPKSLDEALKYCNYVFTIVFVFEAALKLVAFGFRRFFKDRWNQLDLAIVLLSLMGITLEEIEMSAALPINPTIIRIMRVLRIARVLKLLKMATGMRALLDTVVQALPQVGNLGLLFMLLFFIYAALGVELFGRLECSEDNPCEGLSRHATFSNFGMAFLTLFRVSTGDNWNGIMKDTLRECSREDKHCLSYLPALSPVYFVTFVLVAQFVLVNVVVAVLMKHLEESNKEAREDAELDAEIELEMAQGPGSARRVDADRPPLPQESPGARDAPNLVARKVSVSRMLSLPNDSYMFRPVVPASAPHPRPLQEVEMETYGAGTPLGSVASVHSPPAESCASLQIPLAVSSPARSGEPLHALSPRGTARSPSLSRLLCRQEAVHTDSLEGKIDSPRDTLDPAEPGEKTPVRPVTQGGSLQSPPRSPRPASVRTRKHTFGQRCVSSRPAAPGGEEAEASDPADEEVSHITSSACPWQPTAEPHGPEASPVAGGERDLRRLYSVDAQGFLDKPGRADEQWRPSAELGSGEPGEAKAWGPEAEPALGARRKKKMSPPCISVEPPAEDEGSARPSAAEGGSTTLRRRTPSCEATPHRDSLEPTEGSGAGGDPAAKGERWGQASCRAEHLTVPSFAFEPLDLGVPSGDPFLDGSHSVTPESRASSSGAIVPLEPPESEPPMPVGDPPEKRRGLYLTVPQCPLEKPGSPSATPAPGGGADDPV
Kind of series: Recombinant hCav3.2 channel expressed in mammalian cells. It is filed as cell-based. Further details: hCav3.2 Channel % Use Dep. (use dependent inhibition): concentration or dose not given beside the values.
From the text: as §1

A further series concerns the target hCav1.2 (Homo sapiens, UniProt Q13936). Kind of series: Recombinant hCav1.2 channel expressed in mammalian cells. It counts as cell-based.
From the text: as §1

Another series concerns the target hCav2.2 (Homo sapiens, UniProt Q00975). Kind of series: Recombinant hCav2.2 channel expressed in mammalian cells. It counts as cell-based. As to conditions: recombinant human channel.
From the text: as §1

For another series, the target named is hNav1.5 (Homo sapiens, UniProt Q14524). Kind of series: Recombinant hNav1.5 channel expressed in mammalian cells. It counts as cell-based.
From the text: as §1

For the next series, the target named is T2, T current in rat DRG (Rattus norvegicus, UniProt Q9EQ60).
T2 construct: native ion channels in dissociated rat dorsal root ganglion (DRG) neurons; from tissue; host or cells: dissociated rat dorsal root ganglion neurons
T2 sequence (Q9EQ60 whole entry): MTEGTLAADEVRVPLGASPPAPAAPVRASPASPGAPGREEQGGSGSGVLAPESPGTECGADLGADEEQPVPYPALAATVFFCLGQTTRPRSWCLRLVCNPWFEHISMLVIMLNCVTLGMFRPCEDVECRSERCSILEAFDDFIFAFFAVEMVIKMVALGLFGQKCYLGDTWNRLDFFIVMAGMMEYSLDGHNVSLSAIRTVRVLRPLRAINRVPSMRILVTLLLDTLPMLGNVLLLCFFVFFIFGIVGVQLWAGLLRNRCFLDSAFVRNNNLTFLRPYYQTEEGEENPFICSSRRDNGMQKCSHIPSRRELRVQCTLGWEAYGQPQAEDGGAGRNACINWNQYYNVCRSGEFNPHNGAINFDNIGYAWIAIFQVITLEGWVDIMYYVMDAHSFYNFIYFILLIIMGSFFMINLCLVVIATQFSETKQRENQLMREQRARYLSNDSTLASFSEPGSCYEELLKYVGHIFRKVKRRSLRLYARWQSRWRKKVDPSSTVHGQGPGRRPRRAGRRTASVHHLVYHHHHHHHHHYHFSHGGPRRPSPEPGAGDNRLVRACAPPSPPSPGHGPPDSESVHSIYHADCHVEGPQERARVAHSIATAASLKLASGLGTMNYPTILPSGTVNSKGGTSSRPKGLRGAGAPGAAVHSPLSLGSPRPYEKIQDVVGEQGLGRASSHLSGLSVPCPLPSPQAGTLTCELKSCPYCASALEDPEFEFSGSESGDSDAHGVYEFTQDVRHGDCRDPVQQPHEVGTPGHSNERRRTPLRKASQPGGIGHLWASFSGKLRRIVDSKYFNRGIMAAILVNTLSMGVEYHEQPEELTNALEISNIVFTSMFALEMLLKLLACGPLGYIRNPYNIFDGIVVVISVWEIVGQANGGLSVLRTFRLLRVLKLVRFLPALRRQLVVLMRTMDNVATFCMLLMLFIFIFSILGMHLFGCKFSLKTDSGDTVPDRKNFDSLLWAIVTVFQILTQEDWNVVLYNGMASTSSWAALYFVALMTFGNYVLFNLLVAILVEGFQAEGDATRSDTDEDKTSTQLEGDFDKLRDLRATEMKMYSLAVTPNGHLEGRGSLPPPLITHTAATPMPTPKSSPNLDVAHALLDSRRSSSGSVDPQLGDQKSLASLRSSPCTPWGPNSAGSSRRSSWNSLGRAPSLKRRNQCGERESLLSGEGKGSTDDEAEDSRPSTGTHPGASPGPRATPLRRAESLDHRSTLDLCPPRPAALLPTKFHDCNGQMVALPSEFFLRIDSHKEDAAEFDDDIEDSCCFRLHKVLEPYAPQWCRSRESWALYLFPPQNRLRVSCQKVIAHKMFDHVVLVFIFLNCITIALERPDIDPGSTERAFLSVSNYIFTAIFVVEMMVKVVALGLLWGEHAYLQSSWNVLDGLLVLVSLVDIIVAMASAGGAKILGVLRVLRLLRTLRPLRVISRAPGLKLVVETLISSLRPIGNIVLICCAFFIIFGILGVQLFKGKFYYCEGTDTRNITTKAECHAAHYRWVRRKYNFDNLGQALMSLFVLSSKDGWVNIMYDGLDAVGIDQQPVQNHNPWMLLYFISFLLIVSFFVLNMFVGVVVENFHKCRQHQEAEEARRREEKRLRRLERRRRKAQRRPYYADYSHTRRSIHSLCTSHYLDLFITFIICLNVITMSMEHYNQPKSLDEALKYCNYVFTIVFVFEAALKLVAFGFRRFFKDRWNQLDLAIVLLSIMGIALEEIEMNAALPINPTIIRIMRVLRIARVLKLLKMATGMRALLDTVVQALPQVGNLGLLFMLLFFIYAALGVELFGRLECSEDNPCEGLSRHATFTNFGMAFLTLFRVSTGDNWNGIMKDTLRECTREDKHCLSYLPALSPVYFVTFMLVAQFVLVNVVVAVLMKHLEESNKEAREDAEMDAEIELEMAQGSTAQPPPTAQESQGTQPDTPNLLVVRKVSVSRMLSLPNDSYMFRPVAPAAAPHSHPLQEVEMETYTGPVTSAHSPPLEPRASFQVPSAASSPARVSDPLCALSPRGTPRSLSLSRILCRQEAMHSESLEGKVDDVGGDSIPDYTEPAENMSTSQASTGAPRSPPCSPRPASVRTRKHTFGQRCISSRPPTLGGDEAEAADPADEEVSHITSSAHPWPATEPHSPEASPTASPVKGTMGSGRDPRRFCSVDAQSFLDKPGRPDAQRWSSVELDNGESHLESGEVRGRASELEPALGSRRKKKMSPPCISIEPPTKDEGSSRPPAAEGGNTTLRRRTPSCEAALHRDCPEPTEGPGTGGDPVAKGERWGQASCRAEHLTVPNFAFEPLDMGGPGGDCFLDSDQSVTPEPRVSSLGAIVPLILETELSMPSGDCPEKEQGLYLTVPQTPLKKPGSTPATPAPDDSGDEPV
Kind of series: Inhibition of T current in dissociated rat DRG neurons. It counts as cell-based. Particulars: read-out: Inhibition of Currents in rat DRG: T IC50.
From the text: as §1

The subject of series [2] is citric acid-induced cough. Kind of series: Citric acid-induced cough in naive, conscious guinea pigs. It is filed as in vivo, guinea pig. Particulars: 30 mg/kg p.o.; for reduction of the number of cough events: 30 min before citric acid, guinea pig; for latency to the first cough: vs vehicle-treated control. The method, then:
Guinea pigs (male, 280 g body weight, Hartley Crl:HA, Charles River) were maintained in temperature 21±2° C., humidity 55±10%, 12 hours on-12 hours off light cycle, with food and water ad libitum for at least 1 week before testing. Cough was induced with citric acid aerosol inhalation and cough assessment by human manual score (Gallico, Borghi et al. 1994). Individual animals were placed in a 4 L plexiglas observation chambers continuously filled with 17.5% citric acid aerosol. Animal cough counts were recorded for 5 min. Coughs can be recognized on the basis of sound associated with a rapid inspiration followed by a rapid expiration. Only the animal with cough counts >=10 times/5 min was selected for experiment. The selected animal was then randomized divided into 5 groups, n=8/group. Five days after screening test, the representative AFA-compound, EX-17 at 0, 3, 10 and 30 mg/kg were administered 30 minutes while the benchmark dextromethorphan hydrobromide (60 mg/kg, p.o.) 60 minutes prior to the citric acid inhalation, based on their PK profiles. […] The latency to the first cough has been used as an additional parameter to evaluate antitussive property.
Using the same test protocol, three more representative EX-compounds EX-128, -130 and -132 (each 30 mg/kg, p.o.) or vehicle were tested by orally administering 30 minutes while dextromethorphan hydrobromide (60 mg/kg, p.o.) 60 minutes prior to the citric acid inhalation, based on their PK profiles. […] The latencies to the first cough were increased with three compounds and the benchmark (FIG. 2B).

The target in series [3] is T3, hERG potassium (K+) channels (Homo sapiens, UniProt Q12809).
T3 construct: expressed in transfected cells
Kind of series: hERG potassium channel inhibition. It counts as cell-based.
From the text: as §1
(hERG is a cardiac potassium channel; its block is linked to QT prolongation.)

The test system of series [4] is histamine-induced itching. Kind of series: Histamine-induced itching (neck model of itch) in mice. It counts as in vivo, mouse. As to conditions: 30 mg/kg i.p., 30 min before pruritogen. The method, then: as §2
The test system of a further series is T-type Ca2+ current. Particulars: Avdonin et al., 2000; cited from earlier work.

As usually defined, the IC50 is the point on the concentration scale where inhibition reaches its midpoint. As for `CC(C)(C)NC(=O)CN1CCC(CNC(=O)c2cc(F)cc(Cl)c2)CC1` [AFA-258, reference compound], the IC50 is 21.4 µM in the series with hiPSC INa; more than 100 µM in the series on IK in rat DRG; more than 100 µM in the series on INa in rat DRG; 0.195 µM at hCav3.2 Channel; more than 30 µM on hCav1.2; more than 30 µM at hCav2.2. The IC50 at hNav1.5 was more than 100 µM; at T current in rat DRG, 0.2 µM. The K/T with IK in rat DRG is listed as more than 513. Further, in [1], the “inhibition of chloroquine-induced itching scratching behavior” value is on record as “did not produce anti-itching effects”. Further, the Na/T in the series with INa in rat DRG is more than 513. The “hCav3.2 Channel % Use Dep. (use dependent inhibition)” value at hCav3.2 Channel is listed as 17.6%.

In the case of `CC(C)(C)NC(=O)CN1CCC2(CC1)CC2NC(=O)c1cc(F)cc(Cl)c1` (centres unmarked) [AFA-279], the IC50 is 83.5 µM in the series with hiPSC INa; more than 100 µM in the series on IK in rat DRG; 6.7 µM in series [3]; more than 100 µM in the series with INa in rat DRG; 0.113 µM on hCav3.2 Channel; more than 10 µM at hCav2.2. The IC50 was determined as 76.4 µM at hNav1.5 and 0.19 µM on T current in rat DRG. Besides, the K/T in the series on IK in rat DRG is reported as more than 1115. The “reduction of the number of cough events” value in series [2] is recorded as 39.1%. Moreover, the “latency to the first cough” value in series [2] is “trend of increasing the latency, but not reaching significant difference”. The “inhibition of chloroquine-induced itching scratching behavior” value in series [1] was “did not produce anti-itching effects”. For the same molecule, the “inhibition of histamine-induced itching scratching behavior” value in [4] is given as “did not produce anti-itching effects”. Moreover, the Na/T in the series with INa in rat DRG was more than 1115. For the same molecule, the “hCav3.2 Channel % Use Dep. (use dependent inhibition)” value at hCav3.2 Channel was found to be 21.3%.

As to `CC(C)(C)NC(=O)CN1CCC2(CC1)CC2NC(=O)c1cc(F)cc(C(F)(F)F)c1` (centres unmarked) [AFA-281], the IC50 in the series with hiPSC INa was 31.4 µM; in the series with IK in rat DRG it was more than 100 µM; in series [3] it was 8 µM; with INa in rat DRG it was more than 100 µM; on hCav3.2 Channel, 0.179 µM; at hCav2.2, more than 30 µM. The IC50 at hNav1.5 is more than 100 µM; on T current in rat DRG it was 0.6 µM. Also, the K/T in the series on IK in rat DRG was more than 557. Besides, the “reduction of the number of cough events” value in [2] amounted to 33%. Moreover, the “latency to the first cough” value in series [2] is listed as “trend of increasing the latency, but not reaching significant difference”. The “inhibition of chloroquine-induced itching scratching behavior” value in series [1] was “potent and equal efficacy”; in [1] (listed as EX-130), “effective”. Moreover, the “inhibition of histamine-induced itching scratching behavior” value was “potent and equal efficacy” in series [4]; “effective” in [4] (listed as EX-130). Further, the Na/T in the series on INa in rat DRG is listed as more than 557. Moreover, at hCav3.2 Channel, the “hCav3.2 Channel % Use Dep. (use dependent inhibition)” value turned out to be 13.9%.

As to `CC(C)(C)NC(=O)CN1CCC2(CC1)C[C@H]2NC(=O)C12CC3CC(CC(C3)C1)C2` [AFA-309], in the series on hiPSC INa (at 3 μM), the “hiPSC INa % at 3 μM” value was 0% at. For the same molecule, the IC50 with IK in rat DRG was more than 30 µM; in [3], more than 30 µM; in the series with INa in rat DRG it was more than 30 µM; on hCav3.2 Channel, 0.141 µM; at hCav1.2, more than 30 µM; at hCav2.2, 15.6 µM. Also, the IC50 on hNav1.5 stood at 25.8 µM. For the same molecule, the K/T in the series on IK in rat DRG is more than 212. In addition, the “inhibition of histamine-induced itching scratching behavior” value in series [4] is “preferentially inhibited histamine-induced itching”. For the same molecule, in the series with INa in rat DRG, the Na/T is on record as more than 212. Further, at hCav3.2 Channel, the “hCav3.2 Channel % Use Dep. (use dependent inhibition)” value was determined as 4.2%.

In the case of `CC(C)(C)NC(=O)CN1CCC2(CC1)CC2C(=O)Nc1cc(C(F)(F)F)cc(C(F)(F)F)c1` (centres unmarked) [AFA-322], the IC50 was 51.6 µM with hiPSC INa; more than 100 µM in the series with IK in rat DRG; 9.2 µM in series [3]; 14.3 µM in the series with INa in rat DRG; 0.138 µM at hCav3.2 Channel; 3.09 µM on hCav2.2. The IC50 is 23.5 µM at hNav1.5 and 0.15 µM on T current in rat DRG. Moreover, in the series with IK in rat DRG, the K/T is listed as more than 723. For the same molecule, the “reduction of the number of cough events” value in series [2] came out at 15.7%. Also, the “latency to the first cough” value in series [2] is reported as “trend of increasing the latency, but not reaching significant difference”. Also, the “inhibition of histamine-induced itching scratching behavior” value in series [4] is recorded as “preferentially inhibited histamine-induced itching”. Also, in the series on INa in rat DRG, the Na/T is 103. Further, the “hCav3.2 Channel % Use Dep. (use dependent inhibition)” value on hCav3.2 Channel stood at 25.6%.

As for `COCC(=O)O[C@]1(CCN(C)CCCc2nc3ccccc3[nH]2)CCc2cc(F)ccc2[C@@H]1C(C)C` [mibefradil], the “more potent inhibition of the T-type than of the L-type Ca2+ current or the voltage-gated Na+ current” value in the series with T-type Ca2+ current is reported as 3-10 times.

The values are drawn from US11744825B2, “Methods of treating hypersensitive cough or itching using ion channel inhibitory compounds” (AFASCI, Inc., priority 2018, dated 2023).
